What was measured:
Type in all cases: cell-based
[1] = tested on: HIV-1LAI virus; assay: Peptide blockade of HIV-1 induced cell-cell fusion (syncytia formation; Molt4 cells co-cultivated with chronically infected CEM cells); settings: for No. Syncytia/well: Table 3, ctrl cells only = 85
Method: The initial screen for antiviral activity of the peptides shown in FIG. 1 was for blockade of syncytium formation induced by overnight co-cultivation of uninfected Molt4 cells with chronically infected (HIV-1IIIB) CEM cells.
Approximately 7×10^4 Molt cells were incubated with 1×10^4 CEM cells chronically infected with the HIV-1LAI virus in 96 well plates (one-half area cluster plates;Costar. Cambridge, Mass.) in a final volume of […] culture media in accordance with known techniques (T. Matthews et al., Proc. Natl. Acad. Sci. U.S.A. 84, 5424 (1987)). Peptide inhibitors were added in a volume of […] and the cell mixtures were incubated for 24 hr at 37° C. At that time point, multinucleated giant cells were estimated by microscopic examination at a 40× magnification which allowed visualization of the entire well in a single field.

[2] = tested on: HIV-1LAI; assay: Peptide inhibition of infection by cell-free virus (neutralization assay; AA5 cells, RT activity readout)
Method: Cell cultures were maintained in 96-well microtiter plates for 8 days by addition of fresh medium (but no further addition of peptides) every other day. On the eighth day post-infection, supernatant was tested for reverse transcriptase activity as evidence of successful infection.
The micro RT assay was adapted from Goff et al. (J. Virol. 38, 239 (1981)) and Willey et al. (J. Virol. 62, 139 (1988)). Supernatants from virus/cell cultures are made 1% in Triton-X100. A […] sample of supernatant was added to 50 ml of RT cocktail in a 96 well U bottom microtiter plate and the samples incubated at […] for 90 min. The cocktail contained 75 mM KCl, 2 mM dithiothreitol, 5 mm Mgcl2l 5 mg/ml poly A (Pharmacia cat. No. 27-4110-01), 0.25 units/ml oligo dT (Pharmacia cat. No. 27-7858-01), 0.05% NP40, 50 mM Tris-HC1, pH 7.8, 0.5 mM non-radioactive dTTP, and 10 mCi/ml ^32p-dTTP (Amersham cat. No. PB.10167). After the incubation period, 40 ml of reaction mixture was applied to a Schleicher and Schuell NA45 membrane (or DE81 paper) saturated in 2×SSC buffer (0.3M NaCl and […]) held in a Schleicher and Schuell Minifold over one sheet of GB003 filter paper. Each well of the minifold was washed four times with […] 2×SSC. The membrane was removed from the minifold and washed 2 more times in a pyrex dish with an excess of 2×SSC. Finally the membrane was drained on absorbent paper, placed on Whatman #3 paper, covered with saran wrap, and exposed to film overnight.
The HIV1LAI virus was obtained from R. Gallo (see M. Popovic et al., Science 224, 497 (1984)) and propagated in CEM cells cultured in RPMI 1640 containing 10-% FCS. Supernatant from the infected CEM cells was passed through a […] and the infectious titer estimated in a microinfectivity assay using the AA5 cell line to support virus replication. For this purpose 25 ml of serially diluted virus was added to 75 ml AA5 cells at 2×10^5/ml in a 96 well microtiter plate. Each virus dilution was tested in triplicate. Cells were cultured for eight days by addition of fresh medium every other day. On day 8 post infection supernatant samples were tested for virus replication as evidenced by RT activity released to the supernatant in accordance with the procedure described above. The TCID50 was calculated according to the Reed and Muench formula in accordance with known techniques. See L. Reed et al., Amer. J. Hygiene 27, 493 (1938) . The titer of the HIV-1LAI stock used for these studies, as measured on the AA5 cell line, was approximately 1×10^7TCID50/ml. The two primary isolates were obtained from PBMCs of two infected donors, one from Brazil (HIV-1Br3) and the other Trinidad (HIV-1Q72775) by co-cultivation with PHA-blasted normal donor PBMCs in RPMI 1640 containing IL2. The infectious titers of the primary virus stocks were estimated by titration onto normal human PHA blasted PBMCs in a 96 well microtiter plate, again using RT activity released to the supernatant as evidence for successful infection. The infectious titer of both of these isolates was estimated to be approximately 1×10^3 TCID100/ml.
The peptides were next tested for blockade of infection by cell-free virus. The results shown in FIG. 3 are representative of several experiments in which the DP-107, 125, and (CS3) peptides were compared for potency in the blockade of HIVLAI, infection of AA5 cells. Each level of peptide was incubated in triplicate with about 500 TCID50 of virus and cells. After 7 days of culture, cell-free supernatant was tested for the presence of RT activity as a measure of successful infection.

[3] = tested on: two primary HIV-1 isolates (HIV-1Br3, HIV-1Q72775); assay: Peptide inhibition of PBMC infection by primary isolates (RT activity readout); settings: FIG. 5
Method: (§1) About 25 TCID100 of two primary isolates and HIV-1LAI were added to […] human PBMCs (about 1.5×10^6/ml) containing the indicated final concentrations of test peptide or 5T4. Each treatment condition was tested in duplicate and the cells were cultured in RPMI1640 containing 10% FCS 5% IL2. Four days post infection an equal number of fresh PBMCs were added to each well. This step allows for further expansion of virus and increases the […] in the final RT assay. Supernatant was harvested 8 days after infection and tested for the presence of reverse transcriptase activity.
(§2) The micro RT assay was adapted from Goff et al. (J. Virol. 38, 239 (1981)) and Willey et al. (J. Virol. 62, 139 (1988)). Supernatants from virus/cell cultures are made 1% in Triton-X100. A […] sample of supernatant was added to 50 ml of RT cocktail in a 96 well U bottom microtiter plate and the samples incubated at 370° C. for 90 min. […]
(§3) The HIV1LAI virus was obtained from R. Gallo (see M. Popovic et al., Science 224, 497 (1984)) and propagated in CEM cells cultured in RPMI 1640 containing 10-% FCS. […] The TCID50 was calculated according to the Reed and Muench formula in accordance with known techniques. […] The titer of the HIV-1LAI stock used for these studies, as measured on the AA5 cell line, was approximately 1×10^7TCID50/ml. […]

[4] = tested on: HIV-1LAI; assay: Peptide inhibition of PBMC infection by prototypic isolate (RT activity readout); settings: FIG. 5
Method: as §1, §2, §3

[5] = tested on: CEM cells; assay: Cytotoxic or cytostatic effects on CEM cells grown in presence of peptide; settings: 50 mg/ml (highest concentration tested), three days, fresh peptide added each day

CGNNLLRAIEAQQHLLQLTVWGIKQLQARILAVERYLKDQ (CGGNNLLRAIEAQQHLLQLTVWGIKQLQARILAVERYLKDQ) [DP-125]
Syncytia Number ([1]; EXP. 2, peptide concentration 1.25 micrograms/ml, 0 peptide = 93): 35 | Syncytia Number ([1]; EXP. 2, peptide concentration 2.5 micrograms/ml, 0 peptide = 93): 3 | Syncytia Number ([1]; EXP. 2, peptide concentration 5 micrograms/ml, 0 peptide = 93): 0 | Syncytia Number ([1]; EXP. 2, peptide concentration 10 micrograms/ml, 0 peptide = 93): 0 | Syncytia Number ([1]; EXP. 2, peptide concentration 20 micrograms/ml, 0 peptide = 93): 0 | Syncytia Number ([1]; EXP. 2, peptide concentration 40 micrograms/ml, 0 peptide = 93): 0 | Syncytia Number ([1]; EXP. 3, peptide concentration 1.25 micrograms/ml, 0 peptide = 76): 0 | Syncytia Number ([1]; EXP. 3, peptide concentration 2.5 micrograms/ml, 0 peptide = 76): 0 | Syncytia Number ([1]; EXP. 3, peptide concentration 5 micrograms/ml, 0 peptide = 76): 0 | Syncytia Number ([1]; EXP. 3, peptide concentration 10 micrograms/ml, 0 peptide = 76): 0 | Syncytia Number ([1]; EXP. 3, peptide concentration 20 micrograms/ml, 0 peptide = 76): 0 | Syncytia Number ([1]; EXP. 3, peptide concentration 40 micrograms/ml, 0 peptide = 76): 0 | No. Syncytia/well ([1]; peptide concentration 1.25 ug/ml on IIIB): 0 | No. Syncytia/well ([1]; peptide concentration 2.5 ug/ml on IIIB): 0 | No. Syncytia/well ([1]; peptide concentration 5 ug/ml on IIIB): 0 | No. Syncytia/well ([1]; peptide concentration 10 ug/ml on IIIB): 0 | No. Syncytia/well ([1]; peptide concentration 20 ug/ml on IIIB): 0 | No. Syncytia/well ([1]; peptide concentration 40 ug/ml on IIIB): 0 | Fusion: quantity of compound required for 90% reduction in number of syncytia ([1]; control = 90 syncytia): <1 µg/mL | Concentration required for inhibition relative to DP107 ([1]; syncytial blocking assays, Table 1 experiments 2 and 3): one-half to one-fourth | Neutraliz: quantity of compound required for 90% reduction in infectivity [2]: 2 µg/mL | Dose required for inhibitory effect compared with DP-107 (in words) ([2]; FIG. 3): lower | Blockade of HIVLAI infection of AA5 cells (in words) ([2]; about 500 TCID50 of virus, RT activity in supernatant, FIG. 3): inhibited the de-novo infection process | Inhibition of PBMC infection by primary isolates (in words) [3]: inhibit | Inhibition of PBMC infection by prototypic isolate HIVLAI (in words) [4]: inhibit

Ac-NNLLRAIEAQQHLLQLTVWGIKQLQARILAVERYLKDQ-NH2 [DP-107]
Viability and growth rate of CEM cells [5]: same viability and growth rate as control cultures

Source: patent US6573078B1, “Compounds which inhibit HIV replication” (priority 1992, dated 2003)
